Laboratory results: patent publication US20180009859A1, “PHARMACOLOGICAL MODULATORS OF GABAA RECEPTORS AND THEIR USE” (priority 2015, published 2018)
Values joined by “and” are separate entries in the source; they are usually repeats but may differ in a detail not shown here. Identical values can stand only once. “Also recorded” adds a separate entry of the source. Like-named read-outs stand apart in the source and are kept apart here. Bridge positions count the residues as written; N and C are the ends.

Legend:
[1] = target: T1, α1β2γ2 GABAA receptor (Rattus norvegicus, UniProt P62813+P63138); assay type: cell-based
[2] = target: T1, α1β2γ2 GABAA receptor; assay type: cell-based; conditions: 5 μM muscimol + 100 nM sMmTX1, n=3; control 48±5s
[3] = target: α1β2-containing receptor (Rattus norvegicus, UniProt P62813+P63138); assay type: cell-based; conditions: 100 nM sMmTX1, −70 mV
[4] = tested on: α1EKβ2γ2 receptor mutant; assay type: cell-based, rat
[5] = tested on: hippocampal neurons; assay: Calcium imaging of hippocampal neurons (Ca^2+ oscillations); assay type: cell-based, rat
[6] = tested on: hippocampal neurons; assay type: cell-based, mouse
[7] = tested on: mice; conditions: injection into mouse brain

T1 sequence (P63138 25-474): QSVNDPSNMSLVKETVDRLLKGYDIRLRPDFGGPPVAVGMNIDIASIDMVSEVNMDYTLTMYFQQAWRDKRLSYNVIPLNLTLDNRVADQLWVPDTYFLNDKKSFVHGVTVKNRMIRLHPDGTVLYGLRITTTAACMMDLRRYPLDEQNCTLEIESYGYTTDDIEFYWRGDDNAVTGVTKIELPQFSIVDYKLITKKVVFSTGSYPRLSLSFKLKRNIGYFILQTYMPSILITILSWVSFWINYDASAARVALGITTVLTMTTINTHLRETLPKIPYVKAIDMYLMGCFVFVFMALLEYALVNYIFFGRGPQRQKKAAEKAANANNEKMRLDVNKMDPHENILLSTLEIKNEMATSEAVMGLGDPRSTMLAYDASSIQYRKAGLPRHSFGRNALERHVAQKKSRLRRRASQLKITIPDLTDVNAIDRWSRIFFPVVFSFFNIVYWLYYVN
T1 sequence (P62813 28-455): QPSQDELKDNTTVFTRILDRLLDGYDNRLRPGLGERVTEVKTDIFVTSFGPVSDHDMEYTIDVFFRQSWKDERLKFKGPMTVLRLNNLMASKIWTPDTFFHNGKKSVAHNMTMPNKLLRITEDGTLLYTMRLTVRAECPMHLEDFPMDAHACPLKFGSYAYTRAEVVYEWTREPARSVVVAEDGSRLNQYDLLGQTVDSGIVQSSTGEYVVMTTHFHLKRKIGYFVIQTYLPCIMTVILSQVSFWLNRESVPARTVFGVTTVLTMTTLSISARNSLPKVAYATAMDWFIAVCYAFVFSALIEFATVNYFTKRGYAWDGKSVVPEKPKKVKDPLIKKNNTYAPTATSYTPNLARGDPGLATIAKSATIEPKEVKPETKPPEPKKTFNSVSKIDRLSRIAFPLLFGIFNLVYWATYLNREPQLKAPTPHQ
T1 sequence (P18508 39-466, further chain): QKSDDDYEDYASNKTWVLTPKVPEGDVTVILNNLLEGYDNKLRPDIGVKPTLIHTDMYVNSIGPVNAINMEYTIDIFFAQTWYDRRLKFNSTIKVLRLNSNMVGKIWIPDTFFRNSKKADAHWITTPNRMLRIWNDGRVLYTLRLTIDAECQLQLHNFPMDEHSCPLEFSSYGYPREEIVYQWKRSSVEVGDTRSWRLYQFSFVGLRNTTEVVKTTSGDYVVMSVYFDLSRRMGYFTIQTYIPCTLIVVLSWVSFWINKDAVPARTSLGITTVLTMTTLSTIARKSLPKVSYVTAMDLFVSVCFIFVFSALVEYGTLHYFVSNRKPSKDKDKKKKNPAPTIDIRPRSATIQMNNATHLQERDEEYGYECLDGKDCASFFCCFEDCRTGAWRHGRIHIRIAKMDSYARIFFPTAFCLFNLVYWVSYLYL
α1β2-containing receptor, sequence (P63138 25-474): as the sequence (P63138 25-474) above
α1β2-containing receptor, sequence (P62813 28-455): as the sequence (P62813 28-455) above

Sequence: LTCKTCPFTTCPNSESCPGGQSICYQRKWEEHRGERIERRCVANCPAFGSHDTSLLCCTRDNCN (disulfide 3-24, 6-11, 17-41, 45-57, 58-63) [sMmTX1]
- alteration of current elicited by 50 μM muscimol [1]: not significantly altered
- factor of current increase ([1]; 0.3 μM muscimol + 100 nM sMmTX1, n=5): 2.7±0.18
- factor of current increase ([1]; 3 μM muscimol + 10 nM toxin): 1.28±0.12
- factor of current increase ([1]; 3 μM muscimol + 100 nM toxin): 1.33±0.13
- effect on currents and desensitization ([1]; 3 μM muscimol + 300 nM sMmTX1, −70 mV): currents are potentiated and receptor desensitization tends to accelerate
- factor of current increase ([1]; 3 μM muscimol + 300 nM toxin): 1.60±0.11
- time constant of receptor desensitization [2]: 25 ± 3 s and 25 ± 2 s
- sensitivity of the receptor to toxin [3]: sensitive
- effect on macroscopic conductance ([4]; 300 nM muscimol): still reduces the macroscopic conductance
- effect on mutant receptor desensitization ([4]; 5 μM muscimol + 100 nM sMmTX1, n=4): does not increase mutant receptor desensitization
- initial effect on Ca^2+ oscillations [5]: short but substantial inhibition
- frequency of Ca^2+ spikes compared to cells perfused with extracellular saline solution ([5]; 100 nM sMmTX1 alone, n=9): 105.8±4.0%
- frequency of action potentials ([6]; 100 nM sMmTX1, current clamp, n=5): substantial increase; also recorded: significantly increased
- action potential amplitude and time-to-peak ([6]; 100 nM sMmTX1, n=5): do not reveal a significant change
- amplitude of mini inhibitory postsynaptic currents (mIPSCs) ([6]; 300 nM muscimol and 100 nM sMmTX1, with TTX, DNQX, APV, n=3): reduces the amplitude
- currents elicited by 30 ms puffs of 300 nM muscimol ([6]; continuous application of 100 nM sMmTX1): induces a decrease
- duration of burst-like postsynaptic currents ([6]; sMmTX1, voltage clamp, n=5): considerable increase
- LD50 [7]: 0.013 mg/kg
- behavioral signs [7]: identical mouse behavioral phenotype
